Values after ≈ are worked out from the molar mass of the structure shown. Like-named read-outs stand apart in the source and are kept apart here.
Assays:
[1] = test system: K562 cells (human chronic myeloid leukemia cell line); assay: Growth-inhibiting activity against animal cells (WST-8), K562; type: cell-based
Procedure: (§1) HL-60 cells (human acute promyelocytic leukemia cell line) and K562 cells (human chronic myeloid leukemia cell line) were maintained in a culture medium in which RPMI1640 medium (manufactured by Invitrogen) was added with 10% fetal bovine serum (manufactured by Nichirei), 0.5% penicillin/streptomycin solution (manufactured by Invitrogen) at 37° C. under a humidified culture of 5% CO2. tsFT210 cells (mouse breast cancer cells CDC2 temperature sensitive strain) were maintained in a culture medium in which RPMI1640 medium (manufactured by Invitrogen) was added with 5% calf serum (manufactured by Hyclone) and 0.5% penicillin/streptomycin solution at 32° C. under a humidified culture of 5% CO2.
(§2) HL-60 cells and K562 cells were seeded in a 96-well plate (manufactured by IWAKI) so as to be 1.5×10^4 cells/well/100 μl. tsFT210 cells were seeded in a 96-well plate so as to be 1.6×10^4 cell/well/100 μl. Each of the agents in Table 5 was added at 0.5% (v/v). HL-60 cells and K562 cells were maintained at 37° C. under a humidified culture of 5% CO2 and tsFT210 cells were maintain at 32° C. under a humidified culture of 5% CO2. Forty eight hours after addition of the agent, 10 μl of a reagent SF solution for counting live cells (WST-8 reagent, manufactured by Nakarai tesque) was added to each well. HL-60 cells and K562 cells were maintained at 37° C. under a humidified culture of 5% CO2 for 30 minutes and tsFT210 cells were maintain at 32° C. under a humidified culture of 5% CO2 for one hour. After the reaction, absorbance at 450 nm was measured using a microplate reader (manufactured by PerkinElmer) and a cell proliferation rate was determined from the measurement value.

[2] = test system: tsFT210 cells (mouse breast cancer cells CDC2 temperature sensitive strain); assay: Growth-inhibiting activity against animal cells (WST-8), tsFT210; type: cell-based
Procedure: as §1, §2

[3] = test system: Budding yeast (MLC30M strain); assay: Growth-inhibiting activity against yeast; type: cell-based; settings: Saccharomyces cerevisiae, read-out: Yeast IC50
Procedure: Budding yeast (MLC30M strain) was precultured in a culture medium of 2% Polypeptone, 1% yeast extract, 2% glucose, 0.02% adenine, and 0.001% sodium dodecyl sulfate (SDS) at 30° C. Absorbance at 600 nm was measured, and yeast solution was prepared such that the absorbance is 0.05 and seeded 100 μl each in a 96-well plate. Each of the agents in Table 5 was added at 0.5% (v/v) and maintained at 30° C. Eighteen hours after addition of the agent, absorbance at 600 nm was measured using a microplate reader (manufactured by PerkinElmer) and a proliferation rate was determined from the measurement value.

[4] = test system: HL-60 cells (human acute promyelocytic leukemia cell line); assay: Growth-inhibiting activity against animal cells (WST-8), HL-60; type: cell-based; settings: for IC50: Homo sapiens, read-out: HL60 IC50
Procedure: as §1, §2

[5] = test system: Escherichia coli (HO141 strain); assay: Growth-inhibiting activity against Escherichia coli; type: cell-based; settings: 6 hours, absorbance at 600 nm, read-out: E. coli IC50
Procedure: Escherichia coli (HO141 strain) was precultured in culture medium of 0.5% Polypeptone, 0.5% Meat Extract, 0.3% NaCl, and 0.001% Sodium Dodecyl Sulfate (SDS) at 37° C. Absorbance at 600 nm was measured, and Escherichia coli solution was prepared such that the absorbance is 0.005 and seeded 100 μl each in a 96-well plate. Each of the agents in Table 5 was added at 0.5% (v/v) and maintained at 37° C. Six hours after addition of the agent, absorbance at 600 nm was measured using a microplate reader (manufactured by PerkinElmer) and a proliferation rate was determined from the measurement value.

[6] = target: T1, Isoleucyl tRNA synthetase (Homo sapiens, UniProt P41252); assay: Inhibitory activity against isoleucyl tRNA synthetase; type: biochemical; settings: HT1080 cell lysate, [3H]isoleucine, 25° C., 20 minutes; read-out: IRS IC50 (converted)
T1 construct: 10 μg protein (HT1080 cell lysate); endogenous in cells; host or cells: HT1080 cell lysate
T1 sequence (P41252 1-1262): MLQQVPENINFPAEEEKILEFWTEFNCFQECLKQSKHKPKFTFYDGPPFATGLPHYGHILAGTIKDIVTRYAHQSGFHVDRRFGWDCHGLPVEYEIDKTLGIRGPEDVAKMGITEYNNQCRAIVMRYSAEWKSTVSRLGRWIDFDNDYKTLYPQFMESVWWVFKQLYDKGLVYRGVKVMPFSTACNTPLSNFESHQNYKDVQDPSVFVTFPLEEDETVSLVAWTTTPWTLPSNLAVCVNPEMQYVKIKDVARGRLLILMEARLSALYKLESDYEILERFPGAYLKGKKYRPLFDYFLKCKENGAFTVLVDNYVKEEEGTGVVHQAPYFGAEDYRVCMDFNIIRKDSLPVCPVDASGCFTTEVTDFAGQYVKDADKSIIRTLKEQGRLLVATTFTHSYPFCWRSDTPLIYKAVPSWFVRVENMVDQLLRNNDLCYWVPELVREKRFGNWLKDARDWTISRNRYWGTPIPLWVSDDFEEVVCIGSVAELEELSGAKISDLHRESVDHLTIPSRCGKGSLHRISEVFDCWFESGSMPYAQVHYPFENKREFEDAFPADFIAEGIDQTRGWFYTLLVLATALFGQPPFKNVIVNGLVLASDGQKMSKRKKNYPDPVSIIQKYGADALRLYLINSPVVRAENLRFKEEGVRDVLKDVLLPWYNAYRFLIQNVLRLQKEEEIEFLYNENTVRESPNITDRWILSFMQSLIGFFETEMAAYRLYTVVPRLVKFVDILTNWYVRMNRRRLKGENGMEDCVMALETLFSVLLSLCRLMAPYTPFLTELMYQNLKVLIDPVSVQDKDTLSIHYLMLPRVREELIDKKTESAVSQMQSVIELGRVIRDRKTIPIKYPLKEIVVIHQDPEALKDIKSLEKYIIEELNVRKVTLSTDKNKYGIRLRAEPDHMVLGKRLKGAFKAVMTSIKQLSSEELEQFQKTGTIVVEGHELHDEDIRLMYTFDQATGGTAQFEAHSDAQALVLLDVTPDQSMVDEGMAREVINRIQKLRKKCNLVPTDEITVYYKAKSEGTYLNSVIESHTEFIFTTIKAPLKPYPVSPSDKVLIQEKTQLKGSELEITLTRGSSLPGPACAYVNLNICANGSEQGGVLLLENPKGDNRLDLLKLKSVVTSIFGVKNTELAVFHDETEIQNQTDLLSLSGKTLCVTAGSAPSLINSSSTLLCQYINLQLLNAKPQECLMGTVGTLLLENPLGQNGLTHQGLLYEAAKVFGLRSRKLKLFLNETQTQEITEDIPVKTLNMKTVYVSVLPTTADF
Procedure: To a solution for enzymatic reaction [20 mM imidazole, pH 7.5, 75 mM MgCl2, 0.5 mM DTT, 1 U/ml tRNA (E. coli origin, manufactured by Sigma), 3 mM ATP, 1 μM isoleucine, 10 μCi/ml [^3H]isoleucine (manufactured by GE Healthcare), 10 μg protein (HT1080 cell lysate)], each of the agents in Table 5 was added at 1% (v/v) so as to attain a total amount of 100 μl and a reaction was carried out at 25° C. for 20 minutes. One mg/ml BSA solution (400 μl) and 10% TCA solution (500 μl) were then added thereto to terminate the reaction and left to stand at 4° C. overnight. A precipitate obtained by a centrifugal operation was transferred onto GF-C filter (manufactured by Whatman), washed three times with 5% TCA solution, followed by drying the filter. Two milliliters of aquasol-2 (manufactured by PerkinElmer) and the filter were placed in a vial and vigorously stirred, and then the amount of [^3H]isoleucine was measured by a liquid scintillation counter (manufactured by Beckman) to determine a rate of enzyme activity.

[7] = K562 cells, 48 hours after addition of the agent, WST-8, read-out: K562 IC50
[8] = tsFT210 cells, 32° C., 48 hours after addition of the agent, WST-8, read-out: tsFT210 IC50
[9] = MLC30M strain, 18 hours, absorbance at 600 nm
[10] = HL-60 cells, 48 hours after addition of the agent, WST-8
[11] = K562, 48 h, read-out: K562 IC50
[12] = tsFT210, 48 h, read-out: tsFT210 IC50

SMILES | IC50 [1, 7] | IC50 [2, 8] | IC50 [3, 9] | IC50 [4, 10] | IC50 [5] | IC50 [1, 11] | IC50 [6] | IC50 [2, 12] | IC50 ([3]; 18 h) | IC50 ([4]; HL-60, 48 h) | cancer cell growth-inhibiting activity (in words) ([4]; summary of Table 5 (HL60, K562, tsFT210), RM-T as compared with RM-A)
CCCCC(CCC(O)CCC(C)C(O)C/C=C(C)/C=C/C(O)C(C)/C=C/C(=O)O)C(O)/C=C/C(C)=C/CC(O)CC (stereo not drawn) [RM-A1a] | > 30 µg/mL | > 30 µg/mL | > 50 µg/mL | 20.9 µg/mL (≈ 35.3 µM) | > 50 µg/mL | – | – | – | – | – | –
CCCCC1CCC(CCC(C)C(O)C/C=C(C)/C=C/C(O)C(C)/C=C/C(=O)O)OC1/C=C/C(C)=C/CC(O)CC (stereo not drawn) [RM-A1b] | 21.1 µg/mL (≈ 36.7 µM) | 17.4 µg/mL (≈ 30.3 µM) | > 50 µg/mL | 7.4 µg/mL (≈ 12.9 µM) | 31.9 µg/mL (≈ 55.5 µM) | – | – | – | – | – | –
CCCCC1CCC2(CCC(C)C(C/C=C(C)/C=C/C(O)C(C)/C=C/C(=O)O)O2)OC1/C=C/C(C)=C/CC(O)CC (stereo not drawn) [RM-A1c] | – | – | – | – | > 50 µg/mL | 3.4 µg/mL (≈ 5.94 µM) | 16.8 µM | 6.4 µg/mL (≈ 11.2 µM) | > 50 µg/mL | 6.3 µg/mL (≈ 11 µM) | –
CCCCC(CCC(O)CCC(C)C(O)C/C=C(C)/C=C/C(O)C(C)/C=C/C(=O)O)C(O)/C=C/C(C)=C/C(=O)O (stereo not drawn) [RM-A1e] | > 30 µg/mL | > 30 µg/mL | 48.2 µg/mL (≈ 85.3 µM) | > 30 µg/mL | > 50 µg/mL | – | – | – | – | – | –
CCCCC(CCC(O)CCC(C)C(O)C/C=C(C)/C=C/C(O)C(C)/C=C/C(=O)O)C(O)C/C=C(C)/C=C/C(=O)CC (stereo not drawn) [RM-A2b] | > 30 µg/mL | > 30 µg/mL | > 50 µg/mL | > 30 µg/mL | > 50 µg/mL | – | – | – | – | – | –
CCCCC1CCC2(CCC(C)C(C/C=C(C)/C=C/C(O)C(C)/C=C/C(=O)O)O2)OC1/C=C/C(C)=C/CO (stereo not drawn) [RM-A6a] | – | – | – | – | 24.6 µg/mL (≈ 46.3 µM) | 14.8 µg/mL (≈ 27.9 µM) | – | 6.8 µg/mL (≈ 12.8 µM) | 31.5 µg/mL (≈ 59.4 µM) | 7 µg/mL (≈ 13.2 µM) | –
CCCCC1CCC2(CCC(C)C(C/C=C(C)/C=C/C(O)C(C)/C=C/C(=O)O)O2)OC1/C=C/C(C)=C/COC(=O)CC (stereo not drawn) [RM-A8a] | – | – | – | – | > 50 µg/mL | 18.5 µg/mL (≈ 31.5 µM) | – | 22.3 µg/mL (≈ 38 µM) | > 50 µg/mL | 18 µg/mL (≈ 30.7 µM) | –
CCCC[C@@]1(OC(=O)CCC(=O)O)CC[C@]2(CC[C@H](C)[C@@H](C/C=C(C)/C=C/[C@H](O)[C@@H](C)/C=C/C(=O)O)O2)O[C@H]1/C=C/C(C)=C/CO [RM-A9a] | – | – | – | – | > 50 µg/mL | 22.3 µg/mL (≈ 34.5 µM) | – | 24.6 µg/mL (≈ 38 µM) | 26.4 µg/mL (≈ 40.8 µM) | 21 µg/mL (≈ 32.5 µM) | –
CCCC[C@H]1CC[C@]2(CC[C@H](C)[C@@H](C/C=C(C)/C=C/[C@H](O)[C@@H](C)/C=C/C(=O)OC)O2)O[C@H]1/C=C/C(C)=C/C(=O)O [RM-T methyl-ester] | – | – | – | – | > 50 µg/mL | 2.5 µg/mL (≈ 4.47 µM) | – | 8.2 µg/mL (≈ 14.7 µM) | > 50 µg/mL | 0.9 µg/mL (≈ 1.61 µM) | high
CC(/C=C/[C@H](O)[C@@H](C)/C=C/C(=O)O)=C\C[C@H]1O[C@@]2(CC[C@H](C)[C@H](/C=C/C(C)=C/C(=O)O)O2)CC[C@@H]1C [SF-A, spirofungin A, reference compound] | 3.4 µg/mL (≈ 6.76 µM) | > 30 µg/mL | 0.3 µg/mL (≈ 0.597 µM) | 1.2 µg/mL (≈ 2.39 µM) | > 50 µg/mL | – | – | – | – | – | –
CC(/C=C/[C@H](O)[C@@H](C)/C=C/C(=O)O)=C\C[C@H]1O[C@]2(CC[C@H](C)[C@H](/C=C/C(C)=C/C(=O)O)O2)CC[C@@H]1C [SF-B, spirofungin B, reference compound] | > 30 µg/mL | > 30 µg/mL | 4 µg/mL (≈ 7.96 µM) | > 30 µg/mL | > 50 µg/mL | – | – | – | – | – | –

— US8980587B2, “Process for producing reveromycin A or a synthetic intermediate thereof, process for producing compounds containing a spiroketal ring and novel antineoplastics, fungicides and therapeutic agents for bone disorders” (RIKEN, priority 2010, dated 2015)
